Data published in paper PMC12820429, “Modulating food intake by nasal application of peptides targeting melanocortin 4 receptor and ghrelin receptor systems” (Brain Communications, 2026).

Target: T1, MC4R (Homo sapiens, UniProt P32245)
T1 construct: expressed in transfected cells; host or cells: HEK293 (transient transfection, pcDNA3_MC4R plus CRE-luciferase reporter pGL4.29)
Experiment: cAMP reporter gene assay
Format: cell-based
Details: normalized to maximal setmelanotide response; n ≥ 2
Protocol: HEK293 cells were cultured under standard conditions.[33] Cyclic adenosine monophosphate (cAMP) reporter gene assay was carried out with HEK293 cells transiently transfected with pGL4.29[luc2P/CRE/Hygro] (Promega, Madison, WI, USA) and pcDNA3_MC4R plasmids. For transfection, a master mix consisting of 0.6 µL Lipofectamine (Invitrogen by Thermo Fisher) per 25 µL Opti-MEM (Gibco, Grand Island, NY, USA) per well was preincubated at room temperature for 5 min and then gently mixed with 0.125 µg of both plasmids per 25 µL Opti-MEM per well and incubated for 30 min at room temperature. […] Two hundred microlitres of the mixture was added per well to a white 96-well plate (Greiner Bio-One International GmbH, Kremsmünster, Austria), previously coated with 0.1 mg/mL poly-D-lysine (Sigma-Aldrich) in Dulbecco’s phosphate-buffered saline (DPBS) for 1 h at room temperature. Cells were incubated overnight at humidified atmosphere (37°C, 5% CO2). […] The medium was removed, and cells were starved in 50 μL of DMEM/F12 (1:1) without FBS at humidified atmosphere for 1 h. One millimolar peptide stocks in dimethyl sulfoxide (DMSO, Sigma-Aldrich) were diluted in DMEM/F12 (1:1) to desired concentrations. […] The plate was transferred to a plate reader (Infinite M200, Tecan Trading AG, Männedorf, Switzerland), briefly shaken and incubated 5 min at room temperature. […]

T1 sequence (P32245 whole entry, species assumed): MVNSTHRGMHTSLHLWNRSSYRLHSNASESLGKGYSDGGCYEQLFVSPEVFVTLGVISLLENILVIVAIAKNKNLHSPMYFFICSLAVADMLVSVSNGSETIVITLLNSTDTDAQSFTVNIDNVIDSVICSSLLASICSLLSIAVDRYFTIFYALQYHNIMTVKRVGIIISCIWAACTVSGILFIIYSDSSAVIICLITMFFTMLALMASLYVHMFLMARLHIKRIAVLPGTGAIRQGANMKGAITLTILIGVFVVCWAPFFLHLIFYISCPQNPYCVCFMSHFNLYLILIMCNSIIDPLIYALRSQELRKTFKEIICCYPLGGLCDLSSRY

For CC(=O)N[C@@H](CCCNC(=N)N)C(=O)N[C@H]1CSSC[C@@H](C(N)=O)NC(=O)[C@H](Cc2c[nH]c3ccccc23)NC(=O)[C@H](CCCNC(=N)N)NC(=O)[C@@H](Cc2ccccc2)NC(=O)[C@H](Cc2c[nH]cn2)NC(=O)[C@@H](C)NC1=O [peptide 1.1, Ac-R^bCaHfRW^bC-NH2], the Emax was 100 ± 4%.
